Peptide text beside a SMILES is read from it.
Legend:
[1] = biological target: T1, Nicotinic acetylcholine receptor alpha6/alpha3/beta4 (Rattus norvegicus) (UniProt P04757+P12392+P43143); assay: Inhibition of rat alpha6/alpha3beta4 nAChR expressed in Stage V-VI Xenopus laevis Oocytes assessed as acetylcholine-induced current response at 1 uM in presence of 100 uM acetylcholine by electrophysiological recording relative to control; type: cell-based; design: scale not given: the % may be the effect or the level left; settings: Oocyte
[2] = Inhibition of rat alpha6/alpha3 E195A mutant beta4 nAChR expressed in Stage V-VI Xenopus laevis Oocytes assessed as inhibition of acetylcholine-induced current in presence of acetylcholine by electrophysiological recording; type: cell-based; settings: Oocyte
[3] = biological target: Neuronal acetylcholine receptor; alpha2/beta2 (Rattus norvegicus, UniProt P12389+P12390); assay: Inhibition of rat alpha2/beta2 nAChR expressed in Stage V-VI Xenopus laevis Oocytes assessed as inhibition of acetylcholine-induced current in presence of acetylcholine by electrophysiological recording; type: cell-based, Oocyte
Neuronal acetylcholine receptor; alpha2/beta2, sequence (P12389 whole entry): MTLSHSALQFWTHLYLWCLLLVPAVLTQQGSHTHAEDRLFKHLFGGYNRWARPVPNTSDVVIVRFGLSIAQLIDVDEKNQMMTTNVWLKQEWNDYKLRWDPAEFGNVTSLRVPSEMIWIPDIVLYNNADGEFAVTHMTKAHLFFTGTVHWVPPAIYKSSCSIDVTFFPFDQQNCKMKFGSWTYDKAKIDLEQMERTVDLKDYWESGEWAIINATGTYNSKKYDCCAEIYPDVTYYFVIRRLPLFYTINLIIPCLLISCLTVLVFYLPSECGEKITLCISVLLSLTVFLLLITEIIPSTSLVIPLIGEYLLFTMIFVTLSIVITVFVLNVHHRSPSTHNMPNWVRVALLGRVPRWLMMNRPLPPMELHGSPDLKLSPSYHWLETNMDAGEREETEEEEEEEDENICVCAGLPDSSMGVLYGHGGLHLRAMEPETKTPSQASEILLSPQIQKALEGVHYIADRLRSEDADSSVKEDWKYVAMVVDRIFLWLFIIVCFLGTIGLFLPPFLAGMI
Neuronal acetylcholine receptor; alpha2/beta2, sequence (P12390 whole entry): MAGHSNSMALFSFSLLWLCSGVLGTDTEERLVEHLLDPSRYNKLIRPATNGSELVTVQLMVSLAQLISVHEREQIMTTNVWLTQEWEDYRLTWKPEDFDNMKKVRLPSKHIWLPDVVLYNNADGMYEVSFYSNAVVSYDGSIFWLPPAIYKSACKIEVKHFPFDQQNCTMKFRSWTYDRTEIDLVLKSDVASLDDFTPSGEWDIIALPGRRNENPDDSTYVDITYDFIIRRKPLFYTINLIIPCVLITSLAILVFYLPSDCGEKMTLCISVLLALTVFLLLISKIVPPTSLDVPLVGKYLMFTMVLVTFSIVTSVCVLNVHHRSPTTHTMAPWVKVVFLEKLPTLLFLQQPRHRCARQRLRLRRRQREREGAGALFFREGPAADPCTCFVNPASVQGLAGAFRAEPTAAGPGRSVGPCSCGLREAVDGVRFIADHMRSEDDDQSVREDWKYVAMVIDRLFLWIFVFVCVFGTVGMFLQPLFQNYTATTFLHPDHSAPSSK

[4] = biological target: Neuronal acetylcholine receptor; alpha2/beta4 (Rattus norvegicus, UniProt P12389+P12392); assay: Inhibition of rat alpha2/beta4 nAChR expressed in Stage V-VI Xenopus laevis Oocytes assessed as inhibition of acetylcholine-induced current in presence of acetylcholine by electrophysiological recording; type: cell-based, Oocyte
Neuronal acetylcholine receptor; alpha2/beta4, sequence (P12389 whole entry): as the sequence (P12389 whole entry) above
Neuronal acetylcholine receptor; alpha2/beta4, sequence (P12392 whole entry): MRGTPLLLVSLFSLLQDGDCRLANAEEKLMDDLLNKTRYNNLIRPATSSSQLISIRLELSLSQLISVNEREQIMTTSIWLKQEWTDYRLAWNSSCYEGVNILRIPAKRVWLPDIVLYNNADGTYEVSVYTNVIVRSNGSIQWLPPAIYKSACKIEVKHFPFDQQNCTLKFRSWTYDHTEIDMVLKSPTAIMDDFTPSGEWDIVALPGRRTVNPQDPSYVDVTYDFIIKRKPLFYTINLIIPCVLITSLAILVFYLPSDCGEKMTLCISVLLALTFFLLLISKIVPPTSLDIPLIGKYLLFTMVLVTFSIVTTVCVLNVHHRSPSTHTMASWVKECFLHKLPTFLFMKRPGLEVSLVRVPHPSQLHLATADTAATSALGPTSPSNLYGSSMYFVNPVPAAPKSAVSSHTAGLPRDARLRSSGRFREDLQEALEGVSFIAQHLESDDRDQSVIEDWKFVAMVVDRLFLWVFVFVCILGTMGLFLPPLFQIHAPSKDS

[5] = biological target: Nicotinic acetylcholine receptor alpha9/alpha10 (Rattus norvegicus, UniProt P43144+Q9JLB5); assay: Inhibition of rat alpha9/alpha10 nAChR expressed in Stage V-VI Xenopus laevis Oocytes assessed as inhibition of acetylcholine-induced current in presence of acetylcholine by electrophysiological recording; type: cell-based, Oocyte
Nicotinic acetylcholine receptor alpha9/alpha10, sequence (P43144 whole entry): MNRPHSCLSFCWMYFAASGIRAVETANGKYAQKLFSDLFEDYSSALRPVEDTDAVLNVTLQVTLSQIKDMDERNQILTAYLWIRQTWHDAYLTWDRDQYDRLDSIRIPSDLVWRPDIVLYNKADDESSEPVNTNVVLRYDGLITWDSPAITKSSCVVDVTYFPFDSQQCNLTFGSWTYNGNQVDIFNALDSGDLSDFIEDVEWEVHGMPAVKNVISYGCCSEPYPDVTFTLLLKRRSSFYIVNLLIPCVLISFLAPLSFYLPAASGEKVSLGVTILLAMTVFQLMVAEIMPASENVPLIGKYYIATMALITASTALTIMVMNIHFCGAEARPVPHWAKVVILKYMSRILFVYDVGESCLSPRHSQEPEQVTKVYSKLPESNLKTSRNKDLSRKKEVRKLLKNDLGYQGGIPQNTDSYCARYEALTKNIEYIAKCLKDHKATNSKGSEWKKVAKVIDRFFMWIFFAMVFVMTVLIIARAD
Nicotinic acetylcholine receptor alpha9/alpha10, sequence (Q9JLB5 whole entry): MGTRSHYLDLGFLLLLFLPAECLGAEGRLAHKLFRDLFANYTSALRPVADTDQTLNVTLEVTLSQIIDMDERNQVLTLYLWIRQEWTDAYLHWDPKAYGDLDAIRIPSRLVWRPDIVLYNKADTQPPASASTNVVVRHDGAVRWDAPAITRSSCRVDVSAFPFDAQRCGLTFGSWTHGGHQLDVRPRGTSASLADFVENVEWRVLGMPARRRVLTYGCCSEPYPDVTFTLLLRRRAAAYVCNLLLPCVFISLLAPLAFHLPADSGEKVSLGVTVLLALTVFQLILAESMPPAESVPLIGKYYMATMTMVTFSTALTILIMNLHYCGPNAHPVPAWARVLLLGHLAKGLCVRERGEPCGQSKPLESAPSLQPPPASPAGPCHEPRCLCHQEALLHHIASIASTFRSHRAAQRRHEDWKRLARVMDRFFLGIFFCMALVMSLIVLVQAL

[6] = biological target: Nicotinic acetylcholine receptor alpha6/alpha3/beta2/beta3 (Rattus norvegicus, UniProt P04757+P12390+P12391+P43143); assay: Inhibition of rat alpha6/alpha3beta2beta3 nAChR expressed in Stage V-VI Xenopus laevis Oocytes assessed as inhibition of acetylcholine-induced current in presence of acetylcholine by electrophysiological recording; type: cell-based, Oocyte
Nicotinic acetylcholine receptor alpha6/alpha3/beta2/beta3, sequence (P04757 whole entry): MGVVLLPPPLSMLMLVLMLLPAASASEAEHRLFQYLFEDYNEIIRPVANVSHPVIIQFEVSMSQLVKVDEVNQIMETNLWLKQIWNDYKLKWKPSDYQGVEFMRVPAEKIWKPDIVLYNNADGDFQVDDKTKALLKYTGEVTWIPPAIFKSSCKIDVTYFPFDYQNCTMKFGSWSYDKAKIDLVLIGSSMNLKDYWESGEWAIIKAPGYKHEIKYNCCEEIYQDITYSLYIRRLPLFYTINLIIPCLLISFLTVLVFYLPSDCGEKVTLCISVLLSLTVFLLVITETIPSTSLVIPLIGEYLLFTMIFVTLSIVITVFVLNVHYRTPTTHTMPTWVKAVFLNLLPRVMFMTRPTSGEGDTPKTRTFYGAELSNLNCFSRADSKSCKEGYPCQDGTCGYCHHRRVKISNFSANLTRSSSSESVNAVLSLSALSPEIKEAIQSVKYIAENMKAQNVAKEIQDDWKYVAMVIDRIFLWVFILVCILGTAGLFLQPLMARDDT
Nicotinic acetylcholine receptor alpha6/alpha3/beta2/beta3, sequence (P12390 whole entry): as the sequence (P12390 whole entry) above
Nicotinic acetylcholine receptor alpha6/alpha3/beta2/beta3, sequence (P12391 whole entry): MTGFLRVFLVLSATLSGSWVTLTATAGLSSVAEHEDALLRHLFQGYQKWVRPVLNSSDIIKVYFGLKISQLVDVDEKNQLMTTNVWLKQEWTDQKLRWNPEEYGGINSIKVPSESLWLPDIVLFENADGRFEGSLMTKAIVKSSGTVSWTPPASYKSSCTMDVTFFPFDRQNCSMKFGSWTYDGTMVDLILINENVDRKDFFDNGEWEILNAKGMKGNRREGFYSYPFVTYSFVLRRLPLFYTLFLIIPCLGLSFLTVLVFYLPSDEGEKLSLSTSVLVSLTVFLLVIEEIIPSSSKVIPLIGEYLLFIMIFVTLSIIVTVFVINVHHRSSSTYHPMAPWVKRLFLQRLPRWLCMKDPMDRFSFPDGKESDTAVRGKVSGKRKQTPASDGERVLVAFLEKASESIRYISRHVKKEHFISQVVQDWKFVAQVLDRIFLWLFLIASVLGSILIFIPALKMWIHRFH
Nicotinic acetylcholine receptor alpha6/alpha3/beta2/beta3, sequence (P43143 whole entry): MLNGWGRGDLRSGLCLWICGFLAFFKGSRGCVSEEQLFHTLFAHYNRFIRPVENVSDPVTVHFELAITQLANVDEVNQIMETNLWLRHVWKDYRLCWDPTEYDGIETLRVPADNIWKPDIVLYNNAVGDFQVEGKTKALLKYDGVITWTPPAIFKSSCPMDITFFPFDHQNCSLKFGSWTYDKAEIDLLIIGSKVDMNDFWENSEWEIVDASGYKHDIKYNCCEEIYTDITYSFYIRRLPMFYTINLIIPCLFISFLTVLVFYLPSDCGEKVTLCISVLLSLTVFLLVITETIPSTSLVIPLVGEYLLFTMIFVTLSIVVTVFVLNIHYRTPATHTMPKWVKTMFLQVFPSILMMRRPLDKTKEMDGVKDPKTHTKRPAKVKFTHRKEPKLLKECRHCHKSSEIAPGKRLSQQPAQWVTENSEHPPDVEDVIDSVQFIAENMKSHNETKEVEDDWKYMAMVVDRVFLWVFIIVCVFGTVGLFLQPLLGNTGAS

[7] = biological target: Neuronal acetylcholine receptor; alpha2/beta4 (Rattus norvegicus) (UniProt P12389+P12392); assay: Inhibition of rat alpha2/beta4 nAChR expressed in Stage V-VI Xenopus laevis Oocytes assessed as inhibition of acetylcholine-induced current at 10 uM in presence of acetylcholine by electrophysiological recording relative to control; type: cell-based; settings: Oocyte
[8] = biological target: Neuronal acetylcholine receptor; alpha3/beta2 (Rattus norvegicus) (UniProt P04757+P12390); assay: Inhibition of rat alpha3/beta2 nAChR expressed in Stage V-VI Xenopus laevis Oocytes assessed as inhibition of acetylcholine-induced current at 10 uM in presence of acetylcholine by electrophysiological recording relative to control; type: cell-based; settings: Oocyte
[9] = biological target: Neuronal acetylcholine receptor; alpha4/beta2 (Rattus norvegicus) (UniProt P09483+P12390); assay: Inhibition of rat alpha4/beta2 nAChR expressed in Stage V-VI Xenopus laevis Oocytes assessed as inhibition of acetylcholine-induced current at 10 uM in presence of acetylcholine by electrophysiological recording relative to control; type: cell-based; settings: Oocyte
[10] = biological target: Neuronal acetylcholine receptor; alpha4/beta4 (Rattus norvegicus) (UniProt P09483+P12392); assay: Inhibition of rat alpha4/beta4 nAChR expressed in Stage V-VI Xenopus laevis Oocytes assessed as inhibition of acetylcholine-induced current at 10 uM in presence of acetylcholine by electrophysiological recording relative to control; type: cell-based; settings: Oocyte
[11] = biological target: Nicotinic acetylcholine receptor alpha9/alpha10 (Rattus norvegicus) (UniProt P43144+Q9JLB5); assay: Inhibition of rat alpha9/alpha10 nAChR expressed in Stage V-VI Xenopus laevis Oocytes assessed as inhibition of acetylcholine-induced current at 10 uM in presence of acetylcholine by electrophysiological recording relative to control; type: cell-based; settings: Oocyte
[12] = biological target: Nicotinic acetylcholine receptor alpha1/beta1/epsilon/delta (Mus musculus) (UniProt P04756+P09690+P02716+P20782); assay: Inhibition of mouse alpha1/beta1deltaepsilon nAChR expressed in Stage V-VI Xenopus laevis Oocytes assessed as inhibition of acetylcholine-induced current at 10 uM in presence of acetylcholine by electrophysiological recording relative to control; type: cell-based; settings: Oocyte
[13] = biological target: T1, Nicotinic acetylcholine receptor alpha6/alpha3/beta4 (Rattus norvegicus); assay: (§1) Inhibition of rat alpha6/alpha3beta4 nAChR expressed in Stage V-VI Xenopus laevis Oocytes assessed as inhibition of acetylcholine-induced current by measuring recovery time at 10 uM preincubated with compound for 5 mins followed by washout in presence of acetylcholine by electrophysiological recording; type: cell-based; settings: Oocyte
Oocyte [14] = assay: Inhibition of rat alpha6/alpha3 D152A mutant beta4 nAChR expressed in Stage V-VI Xenopus laevis Oocytes assessed as acetylcholine-induced current response at 1 uM in presence of 100 uM acetylcholine by electrophysiological recording relative to control; type: cell-based; design: scale not given: the % may be the effect or the level left
[15] = biological target: T1, Nicotinic acetylcholine receptor alpha6/alpha3/beta4 (Rattus norvegicus); assay: Inhibition of rat alpha6/alpha3beta4 nAChR expressed in Stage V-VI Xenopus laevis Oocytes assessed as acetylcholine-induced current response at 100 nM in presence of 100 uM acetylcholine by electrophysiological recording relative to control; type: cell-based; settings: Oocyte
Oocyte [16] = assay: as §1, with “alpha6/alpha3 E195A mutant beta4” for “alpha6/alpha3beta4”; type: cell-based
Oocyte [17] = assay: as §1, with “alpha6/alpha3 T59K mutant beta4” for “alpha6/alpha3beta4”; type: cell-based
Oocyte [18] = assay: as §1, with “alpha6/alpha3 E34M mutant beta4” for “alpha6/alpha3beta4”, “recovery” for “recovery time”; type: cell-based; design: scale not given: the % may be the effect or the level left
Oocyte [19] = assay: Inhibition of rat alpha6/alpha3 E34M mutant beta4 nAChR expressed in Stage V-VI Xenopus laevis Oocytes assessed as inhibition of acetylcholine-induced current by measuring recovery at 10 uM preincubated with compound for 5 mins followed by measured after 20 mins washout by electrophysiological recording; type: cell-based; design: scale not given: the % may be the effect or the level left; settings: time 25.0 min
[20] = Inhibition of rat alpha6/alpha3beta4 E34M mutant nAChR expressed in Stage V-VI Xenopus laevis Oocytes assessed as inhibition of acetylcholine-induced current in presence of acetylcholine by electrophysiological recording; type: cell-based; settings: Oocyte
[21] = Inhibition of rat alpha6/alpha3beta4 K57T mutant nAChR expressed in Stage V-VI Xenopus laevis Oocytes assessed as inhibition of acetylcholine-induced current in presence of acetylcholine by electrophysiological recording; type: cell-based; settings: Oocyte
[22] = Inhibition of rat alpha6/alpha3beta4 I166S mutant nAChR expressed in Stage V-VI Xenopus laevis Oocytes assessed as inhibition of acetylcholine-induced current in presence of acetylcholine by electrophysiological recording; type: cell-based; settings: Oocyte
Rattus norvegicus [23] = species: Rattus norvegicus; assay: Selectivity index, ratio of IC50 for rat alpha6/alpha3 D152A mutant beta4 nAChR expressed in Stage V-VI Xenopus laevis oocytes to IC50 for rat alpha6/alpha3beta4 nAChR expressed in Stage V-VI Xenopus laevis Oocytes by electrophysiological recording; type: cell-based
Rattus norvegicus [24] = species: Rattus norvegicus; assay: Selectivity index, ratio of IC50 for rat alpha6/alpha3beta4 E34M mutant nAChR expressed in Stage V-VI Xenopus laevis oocytes to IC50 for rat alpha6/alpha3beta4 nAChR expressed in Stage V-VI Xenopus laevis Oocytes by electrophysiological recording; type: cell-based
Rattus norvegicus [25] = species: Rattus norvegicus; assay: Selectivity index, ratio of IC50 for rat alpha6/alpha3beta4 D161A mutant nAChR expressed in Stage V-VI Xenopus laevis oocytes to IC50 for rat alpha6/alpha3beta4 nAChR expressed in Stage V-VI Xenopus laevis Oocytes by electrophysiological recording; type: cell-based
Rattus norvegicus [26] = species: Rattus norvegicus; assay: Selectivity index, ratio of IC50 for rat alpha6/alpha3beta4 1166S mutant nAChR expressed in Stage V-VI Xenopus laevis oocytes to IC50 for rat alpha6/alpha3beta4 nAChR expressed in Stage V-VI Xenopus laevis Oocytes by electrophysiological recording; type: cell-based

With `CC(C)[C@H](NC(=O)[C@@H]1CCCN1C(=O)[C@H](CC(N)=O)NC(=O)[C@H](C)NC(=O)[C@H](CS)NC(=O)[C@H](CS)NC(=O)[C@@H](N)CCCNC(=N)N)C(=O)N[C@@H](CS)C(=O)N[C@@H](CC(N)=O)C(=O)NCC(=O)N[C@@H](CCCCN)C(=O)N[C@@H](Cc1cnc[nH]1)C(=O)N[C@@H](CS)C(N)=O` (H-RCCANPVCNGKHC-NH2) the Activity [1] was 96%, the IC50 [2] was 959 nM and the IC50 [3] was > 10000 nM. The IC50 [4] was > 10000 nM, the IC50 [5] was > 10000 nM and the IC50 [6] was > 10000 nM. The inhibition [7] was < 50%, the inhibition [8] was < 50% and the inhibition [9] was < 50%. For the same compound, the inhibition [10] was < 50%, the inhibition [11] was < 50% and the inhibition [12] was < 50%. For the same compound, the TIME [13] was 0.333 h, the Activity (Oocyte [14]) was 63.8% and the inhibition [15] was 85.5%. It also gave a TIME (Oocyte [16]) of 0.0167 h, a TIME (Oocyte [17]) of 0.0333 h and an Activity (Oocyte [18]) of 70%. The Activity (Oocyte [19]) was 66.3%, the IC50 [20] was 18.5 nM and the IC50 [21] was 134 nM. It also gave an IC50 [22] of 50.8 nM, a Ratio IC50 (Rattus norvegicus [23]) of 24.7 and a Ratio IC50 (Rattus norvegicus [24]) of 0.97. The Ratio IC50 (Rattus norvegicus [25]) was 3.3 and the Ratio IC50 (Rattus norvegicus [26]) was 2.7.

— ChEMBL document CHEMBL5316324, “Discovery, Characterization, and Engineering of LvIC, an α4/4-Conotoxin That Selectively Blocks Rat α6/α3β4 Nicotinic Acetylcholine Receptors” (J Med Chem, 2023)
